# From patent US20220079910A1, “Cancer Treatment Useing Docetaxel by Controlling Peak Plasma Levels” (Modra Pharmaceuticals B.V., priority 2018, published 2022)
# Where two headings read alike, the source gives them in different places.
# Experiments:
# [1] = Phase I trial N07DOW: docetaxel plasma exposure after oral docetaxel with ritonavir; type: in vivo; conditions: human, mean±SD; for AUC(0-t): read-out: docetaxel AUC0-48 h
# Description: (§1) We treated in a phase I trial (N07DOW) cancer patients (n=100) with oral docetaxel in combination with ritonavir. The dose was administered on one day (single dose), once per week. Data presented as mean±standard deviation. If available, kinetic data of 2 cycles per patient were used.
# [2] = system: cancer patients; assay: Phase I trial N10BOM: treatment duration, SAEs/DLTs, best response; type: in vivo, human; conditions: n=64
# Description: (§2) We treated in a phase I trial (N10BOM) cancer patients (n=64) with oral docetaxel in combination with ritonavir. The dose was administered bi-daily once per week continuously.
# Treatment duration of 8 patients was from 19 up to 55 weeks. These were patients with the following cancers. Head and neck cancer (n=2; PR), non-small cell lung (n=4; SD), colorectal (n=1; SD) and giant cell neuroendocrine carcinoma (n=1; SD). The docetaxel exposure in these patients was:
# (§3) The docetaxel exposure in these patients was:
# Twentyfive patients had SD or PR as best treatment response.
# [3] = weekly docetaxel 35 mg/m2 as 0.5 h intravenous infusion; cited from earlier work
# [4] = system: metastasized castration-resistant prostate cancer (mCRPC); assay: Phase IB/IIA study in mCRPC (M17DOC): PSA response, radiological response, treatment cycles; type: in vivo, human; conditions: FIG. 3 / FIG. 6; target range 500-1500 h*ng/mL (FIG. 6)
# Description: In FIG. 8 a plot is shown of the number of treatment cycles (with a maximum of 30) in a multicenter clinical phase IB study in mCRPC (M17DOC) of evaluable patients. Patients were scored, as PSA progression (black bars); PSA equal to baseline or decline (<50%) (dark grey bars); PSA response (decline ≥50%) (medium grey bars); clinical response (pain reduction) up to the maximum treatment period permitted in the protocol of 30 weeks (light grey bars).
# (§4) A multicenter clinical phase IB/IIA study was conducted in mCRPC (M17DOC), wherein ModraDoc006, an oral docetaxel formulation was combined with ritonavir (ModraDoc006/r), in metastasized castration-resistant prostate cancer (mCRPC).
# (§5) The study included patients diagnosed with metastasized castration-resistant prostate cancer (mCRPC), dosed in a bi-daily once weekly (BIDW) dosing schedule at 4 dose levels (see table below).
# This study included 20 evaluable patients diagnosed with metastasized castration-resistant prostate cancer (mCRPC), dosed in a bi-daily once weekly (BIDW) dosing schedule at 4 dose levels (see table).
# [5] = in vivo
# Description: The described method was successfully applied in clinical studies with oral administration of docetaxel in combination with ritonavir.
# Our next step was to investigate this oral treatment schedule in patients with metastatic Castration Resistant Prostate Cancer (mCRPC) in a phase IB/.IIA trial.
# as §4, §5
# [6] = cited from earlier work
# [7] = system: cancer patients; assay: Phase I trial N07DOW: treatment duration, SAEs/DLTs, best response; type: in vivo, human; conditions: n=100
# Description: as §1
# Treatment duration of 19 patients was from 19 up to 72 weeks. These were patients with the following cancers. Head and neck (n=1), non-small cell lung (n=8), anal (n=1), primary unknown (n=3), ovarian (n=1), esophageal (n=1), urothelial cell (n=2), leiomyosarcoma (n=1) and neuroendocrine lung carcinoma (n=1). The docetaxel exposure in these patients was:
# as §3
# Fiftytwo patients had SD (stable disease) (n=42) or PR (partial response) (n=10) as best treatment response.
# [8] = IV docetaxel q3w AUC in mCRPC patients vs other tumors (De Vries Schultink et al.); conditions: human, in vivo, weekly equivalent, read-out: weekly AUC of IV docetaxel in mCRPC patients (q3w AUC divided by 3)
# Description: The target minimum AUC threshold in mCRPC patients is highlighted and ranges from about 600-800 h*ng/mL.
# [9] = Phase I trial N10BOM: docetaxel plasma exposure after oral docetaxel with ritonavir; type: in vivo; conditions: human; for AUC(0-t): read-out: docetaxel AUC0-48 h
# Description: as §2
# [10] = Weekly intravenous docetaxel infusion: AUC and CMAX (Baker et al.); type: in vivo, human; conditions: IV 35 mg/m2 in 0.5 h vs oral in patients with solid tumors (not prostate)
# [11] = oral, 10 patients with SAEs and DLTs (≥grade 3)
# [12] = oral, 25 patients with SD or PR as best treatment response
# [13] = po, oral docetaxel + ritonavir bi-daily once per week, 8 patients with treatment duration 19 up to 55 weeks
structure (smiles),measurement,setting,value
CC(=O)O[C@@]12CO[C@@H]1C[C@H](O)[C@@]1(C)C(=O)[C@H](O)C3=C(C)[C@@H](OC(=O)[C@H](O)[C@@H](NC(=O)OC(C)(C)C)c4ccccc4)C[C@@](O)([C@@H](OC(=O)c4ccccc4)[C@H]21)C3(C)C [docetaxel],AUC(0-t),"[1]; oral, 15 patients with SAEs and DLTs (≥grade 3)",2340 ± 1450 ng·h/mL
same,Cmax,"[1]; oral, 15 patients with SAEs and DLTs (≥grade 3), read-out: docetaxel CMAX",351 ± 244 ng/mL
same,AUC(0-t),"[1]; oral, 52 patients with SD or PR as best treatment response",1080 ± 1020 ng·h/mL
same,Cmax,"[1]; oral, 52 patients with SD or PR as best treatment response, read-out: docetaxel CMAX",197 ± 186 ng/mL
same,AUC(0-t),"[1]; po, oral docetaxel + ritonavir, single dose once per week, 19 patients with treatment duration 19 up to 72 weeks",803 ± 634 ng·h/mL
same,Cmax,"[1]; po, oral docetaxel + ritonavir, single dose once per week, 19 patients with treatment duration 19 up to 72 weeks, read-out: docetaxel CMAX (peak)",148 ± 113 ng/mL
same,"patients with SAEs and DLTs (possible, probable, definite; ≥grade 3)",[2],10 patients
same,patients with SD or PR as best treatment response,[2],Twentyfive
same,AUC,[3],1480 ± 410 ng·h/mL
same,length of treatment (number of cycles) in patients in a target docetaxel AUC range,[4],trending longer
same,docetaxel clearance in mCRPC patient population vs patients with other solid tumors,[5],higher clearance
same,ratio of AUCs for IV docetaxel in mCRPC patients vs other tumors,[6]; 1820/3300,55%
same,q3w AUC of IV docetaxel in mCRPC patients,"[6]; IV, every three weeks",1820 ng·h/mL
same,patients with PR (partial response) as best treatment response,[7],10 patients
same,"patients with SAEs and DLTs (possible, probable, definite; ≥grade 3)",[7],15 patients
same,patients with SD (stable disease) as best treatment response,[7],42 patients
same,patients with SD or PR as best treatment response,[7],Fiftytwo
same,AUC,[8],~600 ng·h/mL
same,Cmax,[9]; [11],175 ± 117 ng/mL
same,AUC(0-t),[9]; [11],1810 ± 1260 ng·h/mL
same,Cmax,[9]; [12],140 ± 83 ng/mL
same,AUC(0-t),[9]; [12],1240 ± 702 ng·h/mL
same,Cmax,[9]; [13],143 ± 67 ng/mL
same,AUC(0-t),[9]; [13],1220 ± 620 ng·h/mL
same,CMAX after intravenous administration relative to oral ModraDoc006/r 30-20/100-100,[10],ten-fold higher
